Reference: article PMC12624434 (ACS Pharmacology & Translational Science, 2025)
Entries after “also recorded” stand apart in the source; their conditions may differ. Marks after values point to notes of the source that are not given here.

Key:
[1] = target: T1, NRP1 b1 domain (Homo sapiens, UniProt O14786); test: SPR binding to immobilized NRP1 b1 domain (Biacore 4000, CM5 chip); conditions: steady-state binding, 25 °C; mean ± SD; read-out: SPR NRP1 b1 domain equilibrium KD
T1 construct: with the purified recombinant NRP1 b1 domain immobilized on the chip; inferred from Ni-NTA capture), TEV-cleavable (cleaved yes); made in house; host or cells: E. coli Rosetta (DE3)
T1 sequence (O14786 275-424 limits assumed): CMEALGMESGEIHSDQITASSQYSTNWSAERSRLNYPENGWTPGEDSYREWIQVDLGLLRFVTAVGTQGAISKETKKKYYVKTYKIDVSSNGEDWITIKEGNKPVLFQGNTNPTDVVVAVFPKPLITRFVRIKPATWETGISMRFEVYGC
Experimental: Surface Plasmon Resonance experiments were performed using a Biacore 4000 instrument at a constant temperature of 25 °C. Sensor chips, buffer stock solutions, and immobilization reagents were purchased from GE Healthcare. Recombinant human NRP1-b1 was produced in-house and recombinant human NRP1-ECD (extracellular domain) was purchased from ACRO (catalogue number NR1-H5A228). All other reagents were obtained from Sigma.
PBS containing 0.05% surfactant P20 was used as the running buffer during immobilization. NRP1-b1 was immobilized onto a CM5 chip using random amine coupling. The four flow cells were treated in the same way to optimize throughput. In summary, spots 1 and 2 were activated with the coupling reagents EDC and NHS for 10 min. NRP1-b1 at a concentration of 20 μg/mL in 10 mM sodium acetate pH 5 was injected onto the surface for 10 and 5 min in spots 1 and 2, respectively to generate surfaces with high and low density. […] The unmodified spot 3 was used as a reference.
PBS buffer containing 0.05% surfactant P20 and 3% DMSO was used as the running buffer and sample dilution buffer throughout these experiments. Dose–responses were obtained using a 2-fold sample dilution from 16 μM to 31 nM, using an injection time of 60 s. Surface regeneration between injections was not necessary, but a wash step with 1 M NaCl was included after injection of the highest concentration sample for each compound.
Binding curves were corrected for variations in DMSO concentration and normalized by molecular weight. Binding results to high and low-density surfaces were processed independently and the average ± SD is presented. K Ds reported are derived from steady-state binding responses and therefore correspond to the equilibrium binding affinity of the compounds.

[2] = for comparison; no reference given; cited from earlier work
[3] = tested on: VEGFA-induced aversion to mechanical stimuli in rats; test: Conditioned place aversion (CPA) to 10 g vF stimulation after VEGFA; assay type: in vivo, rat
Experimental: (§1) The procedure was performed as reported previously. Briefly, rats were gently restrained in a fabric cloth and given an intraplantar injection in the hind-paw containing VEGFA165 (10 nM) and compound (EG00229 or 12h, at 30 or 10 μM) alone or in combination in 50 μL of PBS vehicle (NaCl 137 mM, KCl 2.5 mM, Na2HPO4 10 mM, and KH2PO4 1.8 mM), using a 31G needle.
The experiments were conducted in a two-chamber device based on the protocols from and as previously described. The protocol includes 4 × 10 min of sequential tests of preconditioning (10 min), conditioning (2 × 10 min) and testing (10 min). During preconditioning, the animal is allowed free access to two connected chambers (30 × 30 × 19 cm), each associated with a scented lip-balm applied to the walls. Immediately following preconditioning, a divider was applied between the chambers, and the rats were conditioned to either stimuli or no-stimuli for 10 min in each chamber. The stimuli consisted of repeated stimulation with a 10 g VF-filament every 30 s for the 10 min that the subject was contained in that chamber, while no stimuli (NS) was applied in the other chamber. The order and side of conditioning was alternated between subjects. Following the conditioning, the divider was removed, and the rat was allowed free access to both chambers for the 10 min test. Animal movements in each chamber were recorded by a camera above, and the duration of time spent in each chamber was recorded during preconditioning and test phase. Decreased time spent in a chamber during the test versus preconditioning indicated avoidance for that chamber and was calculated as a CPA-score: time in VF-chamber during preconditioning – time in VF-chamber during test.

[4] = tested on: P-p38 in human brain endothelial cell line hCMEC/D3; test: p38 phosphorylation in hCMEC/D3 cells (immunoblotting); assay type: cell-based
Experimental: Cell lysates of the human brain endothelial cell line hCMEC/D3 were prepared in RIPA buffer containing 0.1% SDS, protease inhibitor cocktail 2 and phosphatase inhibitor cocktail (Sigma-Aldrich). Proteins were separated by SDS-PAGE and transferred to nitrocellulose by wet electrotransfer. Membranes were blocked with 5% milk in Tris-buffered saline (TBS) overnight at 4 °C and then incubated with the appropriate primary antibody diluted in TBS containing 0.1% Tween-20 and 1% BSA for 2 h and 30 min at rt; the primary antibodies used were specific for phospho P-p38, p38 (1:1000; Cell Signaling Technology) and GADPH (1:10000; Merck). Membranes were washed with 0.1% Tween-20 in TBS and then incubated with goat antimouse or goat antirabbit horseradish peroxidase (HRP)-conjugated IgG (GE Healthcare) diluted 1:10,000 or 1:5000, respectively, with 0.1% Tween-20, 1% BSA in PBS. Membranes were developed using the ECL reagents (Roche) and images were acquired with the Bio-Rad ChemiDoc MP Imaging System and the Bio-Rad Image Lab software (version 6.0.1). Protein bands were quantified using ImageJ software version 1.52a (NIH Bethesda), whereby signal intensity was normalized to signal intensity from GADPH from the same sample as a loading control. Phosphorylation levels were normalized against the total levels of p38. Densitometric quantification of three independent immunoblots was determined by changes in protein or phosphoprotein content normalized to GADPH total protein loading controls, with values expressed as fold increase. Data are shown as mean ± SD. Statistical analysis included one-way ANOVA with significance levels set at 0.05, followed by posthoc Dunnett’s tests.

[5] = tested on: total Na+ currents in rat DRG neurons; test: Whole-cell patch-clamp of Na+ currents in dissociated DRG neurons; assay type: cell-based; conditions: for V 1/2 activation, total Na+ / V 1/2 inactivation, total Na+: mean ± SEM (n cells)
Experimental: Recordings were obtained from acutely dissociated DRG neurons obtained from female rats as described earlier. Patch-clamp recordings were performed at room temperature (22–24 °C). Currents were recorded using an EPC 10 Amplifier-HEKA (HEKA Elektronik, Ludwigshafen, Germany) linked to a computer with Patchmaster software.
To determine the effect of VEGFA application on voltage-gated sodium currents, we incubated DRG neurons for 30 min with recombinant rat VEGFA, 1 nM (Cat#P4853, Abnova, Taipei, Taiwan) before whole-cell patch-clamp recordings. […] For the control condition, DRG neurons were incubated for 30 min with DMSO at a final concentration of 0.1%.
For Na^+ current (I Na+) recordings, the external solution contained (in mM): 130 NaCl, 3 KCl, 30 tetraethylammonium chloride, 1 CaCl2, 0.5 CdCl2, 1 MgCl2, 10 D-glucose and 10 HEPES (pH 7.3 adjusted with NaOH, and mOsm/L = 315). Patch pipettes were filled with an internal solution containing (in mM): 140 CsF, 1.1Cs-EGTA, 10 NaCl, and 15 HEPES (pH 7.3 adjusted with CsOH, and mOsm/L = 300). Peak Na^+ current was acquired by applying 150 ms voltage steps from – 70 to +60 mV in 5-mV increments from a holding potential of – 60 mV to obtain the current–voltage (I–V) relation.
Normalization of currents to each cell’s capacitance (pF) was performed to allow for collection of current density data. For I–V curves, functions were fitted to data using a nonlinear least-squares analysis. I–V curves were fitted using double Boltzmann functions: f=a+g1/(1+exp((x−V1/21)/k1))+g2/(1+exp(−(x−V1/22)/k2)) where x is the membrane potential, V 1/2 is the midpoint potential and k is the corresponding slope factor for single Boltzmann functions. Double Boltzmann fits were used to describe the shape of the curve, not to imply the existence of separate channel populations. Numbers 1 and 2 simply indicate first and second midpoints; a along with g are fitting parameters.
Activation curves were obtained from the I–V curves by dividing the peak current at each depolarizing step by the driving force according to the equation: G = I/(V mem – E rev), where I is the peak current, V mem is the membrane potential and E rev is the reversal potential. The conductance (G) was normalized against the maximum conductance (G max). Steady-state inactivation (SSI) curves were obtained by applying an H-infinity protocol that consisted of 1-s conditioning prepulses from −120 to +10 mV in 10-mV increments followed by a 200 ms test pulse to +10 mV. Inactivation curves were obtained by dividing the peak current recorded at the test pulse by the maximum current (I max). Activation and SSI curves were fitted with the Boltzmann equation.

[6] = tested on: VEGFA-induced mechanical allodynia in rats; test: VEGFA-induced mechanical allodynia (von Frey), intraplantar injection; assay type: in vivo, rat
Experimental: as §1

[7] = tested on: T180/Y182 phosphorylated p38 (P-p38) in retinal endothelium; test: VEGFA-induced p38 phosphorylation in ex vivo mouse retina (immunostaining); assay type: cell-based
Experimental: Retinae from C57Bl/6J mice were fixed in 4% formaldehyde in PBS for 1 h and washed three times with PBS. After 1 h in blocking buffer (3% Triton X-100, 1%1% Tween and 0.5% BSA in 2× PBS), retinae were immunostained by incubation with rabbit anti-P-p38 MAPK (Thr180/Tyr182) antibody (Cell Signaling) and biotin-conjugated Isolectin B4 (IB4, Merck) overnight at 4 °C, followed by Alexa Fluor 555–conjugated goat antirabbit antibodies (Invitrogen) and Alexa Fluor 488-conjugated streptavidin (Invitrogen) respectively for 1 h at rt. Images were acquired with a Zeiss Axioskop 2 microscope, using a ph3 Plan-Apochromat 63×/1.40 oil objective, Hamamatsu camera and the HCImage software. Each image was acquired as an RGB color image and then processed with ImageJ software version 1.52a (NIH Bethesda). Channels were split to separate the IB4 staining (green channel) from the P-p38 staining (red channel). The threshold function was used on the IB4 image to determine the area of the vessels and to generate a mask that was restored in the red channel image to measure the area of the vessels positive to P-p38 staining. The P-p38 staining area was normalized against the area stained with IB4. Three retinae from three different mice per condition were used for analysis. One-way ANOVA was used to compare the different treatments.

[8] = 30 μM, 15 min prior to VEGFA165 stimulation

## NC(N)=NCCCC(NC(=O)c1sccc1NS(=O)(=O)c1cccc2nsnc12)C(=O)O (centres unmarked) [EG00229, reference compound]
[1]
  Kd: 2.71 ± 0.13 µM
[2]
  half-life: 34.8 min
[3]; 10 μM, male rats
  effect on VEGFA-induced aversion in CPA-paradigm: had no effect
[3]; 30 μM coinjected with VEGFA 10 nM, male and female rats
  VEGFA-induced aversion (time in vF-conditioned chamber): prevented the stimulus-aversion from VEGFA in both sexes; also recorded: the aversion was prevented
[3]; 30 μM, female rats
  CPA-score vs VEGFA/vehicle: showed a significant effect
[4]; 30 μM alone, 5 min
  p38 phosphorylation when added alone: induced p38 kinase phosphorylation
[4]; [8]
  effect on VEGFA-induced p38 phosphorylation: prevented VEGFA-induced p38 phosphorylation
[5]; 30 μM alone, 30 min
  effect on Na+ currents, alone: Neither EG00229 nor 12h alone had any obvious effect
[5]; 30 μM, then VEGFA165 1 nM 30 min, small-sized DRG neurons
  effect on VEGFA-induced increase in Na+ currents and current density: equally reduced
[5]; compound 30 μM + VEGFA
  V 1/2 activation, total Na+: –16.384 ± 0.773 (15) ^b mV
  V 1/2 inactivation, total Na+: –49.707 ± 2.554 (15) mV
[5]; compound alone, 30 μM
  V 1/2 activation, total Na+: –15.229 ± 0.972 (10) ^b mV
  V 1/2 inactivation, total Na+: –49.108 ± 2.415 (10) mV
[6]; 10 μM coinjected with VEGFA, male rats
  effect on VEGFA-induced mechanical allodynia: produced significant antinociceptive effects
[6]; 30 μM coinjected with VEGFA165 10 nM, 50 μL intraplantar, male and female rats
  effect on VEGFA-induced mechanical allodynia (paw withdrawal threshold, AUC 0-6 h): comparable antinociceptive effects in males and females
[7]; 30 μM alone, 5 min
  p38 phosphorylation when added alone: induced p38 phosphorylation
[7]; [8]
  effect on VEGFA-induced p38 phosphorylation in retinal endothelium: prevented VEGFA-induced p38 phosphorylation
